Measured values from PubChem BioAssay (NCI).
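Values below derive from 48-hour exposures of cells grown in 96-well plates, with endpoints linearly interpolated between the two concentrations bracketing the appropriate inhibition level. The concentration for full growth arrest is given as TGI.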

Columns and labels:
Assay in all cases: NCI anticancer screen, dose series, 48 h
EKVX NSCLC = system: EKVX NSCLC
SK-MEL-28 melanoma = system: SK-MEL-28 melanoma
MDA-MB-231 breast = system: MDA-MB-231 breast
SW-620 colon = system: SW-620 colon
K-562 leukemia = system: K-562 leukemia
786-0 renal = system: 786-0 renal
T-47D breast = system: T-47D breast
HCT-15 colon = system: HCT-15 colon
CCRF-CEM leukemia = system: CCRF-CEM leukemia
MDA-MB-435 = system: MDA-MB-435
SF-539 CNS = system: SF-539 CNS
UO-31 renal = system: UO-31 renal
UACC-257 melanoma = system: UACC-257 melanoma
SR leukemia = system: SR leukemia
IGROV1 ovarian = system: IGROV1 ovarian
LOX IMVI melanoma = system: LOX IMVI melanoma
U251 CNS = system: U251 CNS
NCI-H522 lung = system: NCI-H522 lung
A498 renal = system: A498 renal
DU-145 prostate = system: DU-145 prostate
MOLT-4 leukemia = system: MOLT-4 leukemia
SK-MEL-5 melanoma = system: SK-MEL-5 melanoma
UACC-62 melanoma = system: UACC-62 melanoma
HOP-92 NSCLC = system: HOP-92 NSCLC
OVCAR-5 ovarian = system: OVCAR-5 ovarian
TK-10 renal = system: TK-10 renal
CAKI-1 renal = system: CAKI-1 renal
ACHN renal = system: ACHN renal
HCC-2998 colon = system: HCC-2998 colon
HL-60(TB) leukemia = system: HL-60(TB) leukemia
HCT-116 colon = system: HCT-116 colon
HS 578T breast = system: HS 578T breast
MDA-N = system: MDA-N
OVCAR-8 ovarian = system: OVCAR-8 ovarian
RXF 393 renal = system: RXF 393 renal
SK-OV-3 ovarian = system: SK-OV-3 ovarian
OVCAR-3 ovarian = system: OVCAR-3 ovarian
A549 NSCLC = system: A549 NSCLC
NCI-H460 lung = system: NCI-H460 lung
SNB-75 CNS = system: SNB-75 CNS
RPMI-8226 leukemia = system: RPMI-8226 leukemia
M14 melanoma = system: M14 melanoma
SF-268 CNS = system: SF-268 CNS
HOP-62 NSCLC = system: HOP-62 NSCLC
SF-295 CNS = system: SF-295 CNS
OVCAR-4 ovarian = system: OVCAR-4 ovarian
SN12C renal = system: SN12C renal
HT29 colon = system: HT29 colon
NCI/ADR-RES ovarian = system: NCI/ADR-RES ovarian
NCI-H23 lung = system: NCI-H23 lung
COLO 205 colon = system: COLO 205 colon
MCF7 breast = system: MCF7 breast
NCI-H226 lung = system: NCI-H226 lung
KM12 colon = system: KM12 colon
PC-3 prostate = system: PC-3 prostate
MALME-3M melanoma = system: MALME-3M melanoma
SK-MEL-2 melanoma = system: SK-MEL-2 melanoma
SNB-19 CNS = system: SNB-19 CNS

Clc1ccccc1/C=C\C1(c2ccccc2)OCCO1 gave a TGI (EKVX NSCLC) of 36 µM, a TGI (SK-MEL-28 melanoma) of 38 µM and a TGI (MDA-MB-231 breast) of 26.2 µM. The TGI (SW-620 colon) was 43.3 µM, the TGI (K-562 leukemia) was > 100 µM and the TGI (786-0 renal) was 31.1 µM. For the same molecule, the TGI (T-47D breast) was 43.4 µM, the TGI (HCT-15 colon) was 26.3 µM and the TGI (CCRF-CEM leukemia) was 53.8 µM. The TGI (MDA-MB-435) was 29.6 µM, the TGI (SF-539 CNS) was 53.3 µM and the TGI (UO-31 renal) was > 100 µM. It also gave a TGI (UACC-257 melanoma) of 31.7 µM, a TGI (SR leukemia) of 28.9 µM and a TGI (IGROV1 ovarian) of 29.9 µM. For the same molecule, the TGI (LOX IMVI melanoma) was 23.7 µM, the TGI (U251 CNS) was 24.8 µM and the TGI (NCI-H522 lung) was 29.3 µM. For the same molecule, the TGI (A498 renal) was 35.8 µM, the TGI (DU-145 prostate) was 30.3 µM and the TGI (MOLT-4 leukemia) was 73.4 µM. For the same molecule, the TGI (SK-MEL-5 melanoma) was 38.6 µM, the TGI (UACC-62 melanoma) was 29.5 µM and the TGI (HOP-92 NSCLC) was > 100 µM. The TGI (OVCAR-5 ovarian) was 44.4 µM, the TGI (TK-10 renal) was 48.4 µM and the TGI (CAKI-1 renal) was 31.3 µM. It also gave a TGI (ACHN renal) of 31.4 µM, a TGI (HCC-2998 colon) of 31.9 µM and a TGI (HL-60(TB) leukemia) of 73.9 µM. For the same molecule, the TGI (HCT-116 colon) was 25.2 µM, the TGI (HS 578T breast) was 35.1 µM and the TGI (MDA-N) was 30.2 µM. The TGI (OVCAR-8 ovarian) was 34.3 µM, the TGI (RXF 393 renal) was 34.5 µM and the TGI (SK-OV-3 ovarian) was 91.3 µM. The TGI (OVCAR-3 ovarian) was 31.6 µM, the TGI (A549 NSCLC) was > 100 µM and the TGI (NCI-H460 lung) was 32.7 µM. For the same molecule, the TGI (SNB-75 CNS) was 34.3 µM, the TGI (RPMI-8226 leukemia) was 23.1 µM and the TGI (M14 melanoma) was > 100 µM. For the same molecule, the TGI (SF-268 CNS) was 29.2 µM, the TGI (HOP-62 NSCLC) was 39.8 µM and the TGI (SF-295 CNS) was 31.2 µM. For the same molecule, the TGI (OVCAR-4 ovarian) was 33 µM, the TGI (SN12C renal) was 32.7 µM and the TGI (HT29 colon) was 33.2 µM. For the same molecule, the TGI (NCI/ADR-RES ovarian) was 31.5 µM, the TGI (NCI-H23 lung) was 22.1 µM and the TGI (COLO 205 colon) was 40.2 µM. The TGI (MCF7 breast) was 7.53 µM, the TGI (NCI-H226 lung) was 44.3 µM and the TGI (KM12 colon) was 23.7 µM.

In the case of CC(C)[C@]12O[C@H]1[C@@H]1O[C@@]13[C@@]1(C)CCC4=C(COC4=O)[C@@H]1C[C@@H]1O[C@@]13C2=O, the TGI (SK-MEL-28 melanoma) is reported as 0.0397 µM, the TGI (MDA-MB-231 breast) is reported as 0.834 µM and the TGI (SW-620 colon) is reported as > 42.1 µM. The TGI (K-562 leukemia) was > 100 µM, the TGI (T-47D breast) was > 100 µM and the TGI (HCT-15 colon) was > 100 µM. For the same molecule, the TGI (CCRF-CEM leukemia) was > 100 µM, the TGI (MDA-MB-435) was 0.0264 µM and the TGI (SF-539 CNS) was 0.0428 µM. For the same molecule, the TGI (UO-31 renal) was > 100 µM, the TGI (UACC-257 melanoma) was 0.0669 µM and the TGI (IGROV1 ovarian) was > 100 µM. The TGI (LOX IMVI melanoma) was > 100 µM, the TGI (U251 CNS) was > 78.7 µM and the TGI (NCI-H522 lung) was 0.328 µM. The TGI (PC-3 prostate) was 2.11 µM, the TGI (MALME-3M melanoma) was 0.0541 µM and the TGI (A498 renal) was 0.0685 µM. The TGI (DU-145 prostate) was > 28.9 µM, the TGI (MOLT-4 leukemia) was 0.3 µM and the TGI (SK-MEL-5 melanoma) was 0.0309 µM. The TGI (UACC-62 melanoma) was 0.0312 µM, the TGI (HOP-92 NSCLC) was 0.0829 µM and the TGI (OVCAR-5 ovarian) was > 100 µM. For the same molecule, the TGI (TK-10 renal) was > 100 µM, the TGI (HL-60(TB) leukemia) was 0.0249 µM and the TGI (HCT-116 colon) was > 100 µM. For the same molecule, the TGI (HS 578T breast) was 0.0882 µM, the TGI (MDA-N) was 0.0265 µM and the TGI (OVCAR-8 ovarian) was > 100 µM. The TGI (RXF 393 renal) was < 0.0158 µM, the TGI (SK-OV-3 ovarian) was > 100 µM and the TGI (A549 NSCLC) was > 100 µM. The TGI (NCI-H460 lung) was > 100 µM, the TGI (SNB-75 CNS) was 0.0444 µM and the TGI (RPMI-8226 leukemia) was 0.063 µM. The TGI (M14 melanoma) was 0.0493 µM, the TGI (SF-268 CNS) was 0.522 µM and the TGI (HOP-62 NSCLC) was 0.115 µM. The TGI (SF-295 CNS) was > 100 µM, the TGI (OVCAR-4 ovarian) was 0.0621 µM and the TGI (SN12C renal) was > 100 µM. For the same molecule, the TGI (SK-MEL-2 melanoma) was 0.0151 µM, the TGI (HT29 colon) was > 100 µM and the TGI (NCI/ADR-RES ovarian) was > 53.2 µM. The TGI (NCI-H23 lung) was < 0.0276 µM, the TGI (COLO 205 colon) was 0.025 µM and the TGI (MCF7 breast) was > 100 µM. For the same molecule, the TGI (SNB-19 CNS) was > 40.9 µM and the TGI (KM12 colon) was > 22.6 µM.

With Cc1ccc(S(=O)(=O)N/N=C2\CC3C4C=CC3C2C4)cc1 (centres undefined) the TGI (EKVX NSCLC) was > 100 µM, the TGI (SK-MEL-28 melanoma) was > 100 µM and the TGI (MDA-MB-231 breast) was > 100 µM. The TGI (SW-620 colon) was > 100 µM, the TGI (K-562 leukemia) was > 100 µM and the TGI (786-0 renal) was > 100 µM. The TGI (T-47D breast) was > 100 µM, the TGI (HCT-15 colon) was > 100 µM and the TGI (CCRF-CEM leukemia) was > 100 µM. For the same molecule, the TGI (MDA-MB-435) was > 100 µM, the TGI (SF-539 CNS) was > 100 µM and the TGI (UO-31 renal) was 40.2 µM. For the same molecule, the TGI (UACC-257 melanoma) was > 100 µM, the TGI (IGROV1 ovarian) was > 100 µM and the TGI (LOX IMVI melanoma) was > 100 µM. The TGI (U251 CNS) was > 100 µM, the TGI (NCI-H522 lung) was > 100 µM and the TGI (PC-3 prostate) was > 100 µM. The TGI (MALME-3M melanoma) was > 100 µM, the TGI (A498 renal) was > 100 µM and the TGI (DU-145 prostate) was > 100 µM. The TGI (MOLT-4 leukemia) was > 100 µM, the TGI (SK-MEL-5 melanoma) was > 100 µM and the TGI (UACC-62 melanoma) was > 100 µM. The TGI (HOP-92 NSCLC) was > 100 µM, the TGI (OVCAR-5 ovarian) was > 100 µM and the TGI (TK-10 renal) was > 100 µM. The TGI (CAKI-1 renal) was > 100 µM, the TGI (ACHN renal) was > 100 µM and the TGI (HCC-2998 colon) was > 100 µM. For the same molecule, the TGI (HL-60(TB) leukemia) was > 100 µM, the TGI (HCT-116 colon) was > 100 µM and the TGI (HS 578T breast) was > 100 µM. For the same molecule, the TGI (MDA-N) was > 100 µM, the TGI (OVCAR-8 ovarian) was > 100 µM and the TGI (RXF 393 renal) was > 100 µM. The TGI (SK-OV-3 ovarian) was > 100 µM, the TGI (OVCAR-3 ovarian) was > 100 µM and the TGI (A549 NSCLC) was > 100 µM. For the same molecule, the TGI (NCI-H460 lung) was > 100 µM, the TGI (M14 melanoma) was > 100 µM and the TGI (SF-268 CNS) was > 100 µM. For the same molecule, the TGI (HOP-62 NSCLC) was > 100 µM, the TGI (SF-295 CNS) was > 100 µM and the TGI (OVCAR-4 ovarian) was > 100 µM. For the same molecule, the TGI (SN12C renal) was > 100 µM, the TGI (SK-MEL-2 melanoma) was > 100 µM and the TGI (HT29 colon) was > 100 µM. The TGI (NCI/ADR-RES ovarian) was > 100 µM, the TGI (NCI-H23 lung) was > 100 µM and the TGI (COLO 205 colon) was > 100 µM. For the same molecule, the TGI (MCF7 breast) was > 100 µM, the TGI (SNB-19 CNS) was > 100 µM and the TGI (NCI-H226 lung) was > 100 µM. The TGI (KM12 colon) was > 100 µM.
